Like-named read-outs stand apart in the source and are kept apart here.
Assays:
[1] = test system: Helicobacter pylori CPY 433 F4; experiment: Bacteria eradication effect of flurofamide in infected mice; type: in vivo; details: male Crj:ICR mice; 100 mg/kg p.o. twice daily, 7 days, in 0.5% methylcellulose containing 1% sodium bicarbonate; * p<0.05 (chi^2 test); control 0/4
Procedure: Bacteria Eradication Effect of Flurofamide
To 5-week-aged male Crj:ICR mice previously fasted for 30 hours, Helicobacter pylori CPY 433 F4 was inoculated intragastrically at 10^7 CFU per mouse. One week after the infection, a test compound which was suspended in 0.5% methylcellulose containing 1% sodium bicarbonate was orally administered at 100 mg/kg twice daily for 7 days. On the next day after the final administration, the stomach of the infected mouse was excised and homogenated. A series of 10-fold dilutions were inoculated to modified Skirrow medium supplemented with activated charcoal and incubated at 37° C. for 4 days under slightly aerobic conditions. The bacteria eradication effect was determined by investigating whether bacterial growth was seen or not.

[2] = biological target: T1, Helicobacter pylori-derived urease (Helicobacter pylori, UniProt P69996); experiment: Screening of urease inhibitors (ammonia yield from urea); type: biochemical
T1 construct: an urease solution prepared from Helicobacter pylori; endogenous in cells
T1 sequence (P69996 whole entry, looked up): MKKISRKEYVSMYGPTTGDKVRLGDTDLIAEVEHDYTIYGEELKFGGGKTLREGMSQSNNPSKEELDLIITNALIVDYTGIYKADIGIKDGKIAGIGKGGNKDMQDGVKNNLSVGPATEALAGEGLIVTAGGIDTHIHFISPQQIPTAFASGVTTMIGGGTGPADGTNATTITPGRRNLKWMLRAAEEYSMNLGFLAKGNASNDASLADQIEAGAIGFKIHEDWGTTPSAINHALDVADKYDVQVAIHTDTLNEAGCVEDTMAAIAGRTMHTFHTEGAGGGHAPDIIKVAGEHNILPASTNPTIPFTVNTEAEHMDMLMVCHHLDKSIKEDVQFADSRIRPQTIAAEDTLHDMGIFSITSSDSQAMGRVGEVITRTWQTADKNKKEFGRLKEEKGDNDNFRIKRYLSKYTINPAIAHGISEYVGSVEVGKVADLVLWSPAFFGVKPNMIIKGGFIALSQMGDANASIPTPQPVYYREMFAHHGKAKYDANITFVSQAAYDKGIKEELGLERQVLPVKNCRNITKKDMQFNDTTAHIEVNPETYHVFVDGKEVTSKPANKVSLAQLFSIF
Procedure: Screening of Urease Inhibitors
One hundred (100) μl of 100 mM Bis-Tris buffer (pH 6.5) and 60 μl of an urease solution prepared from Helicobacter pylori were added to 20 μl of a test drug dissolved in 0.1% dimethylformamide solution. The mixture was incubated at room temperature for 30 minutes, and then 20 μl of 100 mM urea was added. The mixture was kept at room temperature for 10 minutes, and then the yielded ammonia in the incubation mixture was measured using a commercial test kit (Ammonia Test Wako®; Wako Pure Chemical). The percent inhibition against the yield of ammonia in the solvent addition group was calculated to obtain the IC50 value.

[3] = test system: Helicobacter pylori (CPY-433 F4); experiment: Bacteria eradication effect of urease inhibitor (in vivo) in infected mice; details: male ICR mice, 10 mg/kg p.o. twice daily, lansoprazole 30 mg/kg s.c. once daily before first dose
[4] = 4 days for therapy, control 0/5

SMILES | IC50 [2] | Eradication Rate ([3]; 2 days for therapy) | further results
NP(N)(=O)NC(=O)c1ccc(F)cc1 [Reference Example 1, N-(Diaminophosphinyl)-4-fluorobenzamide, reference compound] |  |  | Eradication Rate [1]: 4/5; IC50 ([2]; Bis-Tris pH 6.5, room temperature, 30 min preincubation, 10 min with urea, read-out: IC50, inhibitory effect against Helicobacter pylori-derived urease): 5 nM
NP(N)(=O)NC(=O)c1cccc([N+](=O)[O-])c1 [Reference Example 23, N-(Diaminophosphinyl)-3-nitrobenzamide] | 5.7 nM |  | Eradication Rate [3, 4]: 1/5
N#Cc1ccc(C(=O)NP(N)(N)=O)s1 [Example 12, N-(Diaminophosphinyl)-5-cyano-2-thiophenecarboxamide] | 3.6 nM | 1/5 | 
Cc1ccc(C(=O)NP(N)(N)=O)s1 [Example 3, N-(Diaminophosphinyl)-5-methyl-2-thiophenecarboxamide] | 5.5 nM |  | Eradication Rate [3, 4]: 2/5
NP(N)(=O)NC(=O)c1ccoc1 [Reference Example 29, N-(Diaminophosphinyl)-3-furancarboxamide] | 5.9 nM |  | Eradication Rate [3, 4]: 2/5
NP(N)(=O)NC(=O)c1ccc([N+](=O)[O-])o1 [Reference Example 30, N-(Diaminophosphiny1)-5-nitro-2-furancarboxamide] | 4.3 nM |  | Eradication Rate ([3]; 3 days for therapy): 2/5
NP(N)(=O)NC(=O)c1csc(Cl)c1 [Example 30, N-(Diaminophosphinyl)-5-chloro-3-thiophenecarboxamide] | 4.3 nM | 1/5 | 
NP(N)(=O)NC(=O)c1csc(Br)c1 [Example 11, N-(Diaminophosphinyl)-5-bromo-3-thiophenecarboxamide] | 4.2 nM | 1/5 | 
NP(N)(=O)NC(=O)c1ccoc1Cl [Example 45, N-(Diaminophosphinyl)-2-chloro-3-furancarboxamide] | 1.4 nM | 1/5 | 
Cc1occc1C(=O)NP(N)(N)=O [Example 40, N-(Diaminophosphinyl)-2-methyl-3-furancarboxamide] | 7.9 nM | 1/5 | 
N#Cc1ccc(C(=O)NP(N)(N)=O)cc1 [Reference Example 17, N-(Diaminophosphinyl)-4-cyanobenzamide] | 5.4 nM |  | Eradication Rate [3, 4]: 1/5
Cc1csc(C(=O)NP(N)(N)=O)c1 [Example 28, N-(Diaminophosphinyl)-4-methyl-2-thiophenecarboxamide] | 1.5 nM | 1/5 | 
Cc1sccc1C(=O)NP(N)(N)=O [Example 15, N-(Diaminophosphinyl)-2-methyl-3-thiophenecarboxamide] | 1.7 nM | 2/5 | 
NP(N)(=O)NC(=O)c1coc(Cl)c1 [Example 46, N-(Diaminophosphinyl)-5-chloro-3-furancarboxamide] | 5.7 nM | 1/5 | 
NP(N)(=O)NC(=O)COc1ccc(F)cc1 [Example 54, N-(Diaminophosphinyl)-4-fluorophenoxyacetamide] | 3.3 nM |  | Eradication Rate ([3]; 3 days for therapy): 1/5
NP(N)(=O)NC(=O)c1ccco1 [Reference Example 25, N-(Diaminophosphinyl)-2-furancarboxamide] | 1.9 nM |  | Eradication Rate [3, 4]: 1/5
Cc1cc(C(=O)NP(N)(N)=O)c(C)s1 [Example 32, N-(Diaminophosphinyl)-2,5-dimethyl-3-thiophenecarboxamide] | 8.7 nM | 2/5 | 
